Measurements reported in patent publication US4324728A, “Compound nanaomycin A and derivatives thereof and a process for producing the same” (The Kitasato Institute, priority 1976, dated 1982).
In brackets after ≈: the same amount, converted by molar mass. Read-outs that look alike come from different tables or passages of the source.

Legend:
Aspergillus niger = assay: Minimal inhibitory concentration (agar); format: cell-based; settings: potato agar, pH 6.4, 4 days, 27° C.
Experimental: (§1) Minimal inhibitory concentration was assayed by agar dilution method
(§2) (potato agar, pH 6.4, 27° C., 4 days).
(§3) P potato agar (pH 6.4, 4 days, 27° C.)

Trichophyton ferrugineum = assay: Minimal inhibitory concentration (agar); format: cell-based; settings: potato agar, pH 6.4, 4 days, 27° C.
[1] = test system: Trichophyton interdigitale; assay: Minimal inhibitory concentration (agar); format: cell-based; settings: potato agar, pH 6.4, 4 days, 27° C.
Candida albicans = assay: Minimal inhibitory concentration (agar); format: cell-based; settings: pH 6.4, 4 days, 27° C.
Experimental: as §3
(§4) MIC Minimal inhibitory concentration
as §1, §2

Trichophyton rubrum = assay: Minimal inhibitory concentration (agar); format: cell-based; settings: pH 6.4, 4 days, 27° C.
Experimental: as §3, §4, §1, §2

Trichophyton schoenleini = assay: Minimal inhibitory concentration (agar); format: cell-based; settings: pH 6.4, 4 days, 27° C.
Experimental: as §3, §4, §1, §2

Trichophyton violaceum = assay: Minimal inhibitory concentration (agar); format: cell-based; settings: potato agar, pH 6.4, 4 days, 27° C.
Trichophyton asteroides = assay: Minimal inhibitory concentration (agar); format: cell-based; settings: potato agar, pH 6.4, 4 days, 27° C.
Saccharomyces sake = assay: Minimal inhibitory concentration (agar); format: cell-based; settings: potato agar, pH 6.4, 4 days, 27° C.
Microsporum gypseum = assay: Minimal inhibitory concentration (agar dilution method); format: cell-based; settings: potato agar, pH 6.4, 27° C., 4 days
Experimental: as §1, §2

Aspergillus fumigatus = assay: as above; format: cell-based; settings: potato agar, pH 6.4, 27° C., 4 days
Experimental: as §1, §2

[2] = test system: Mycobacterium smegmatis ATCC 607; assay: Minimal inhibitory concentration (agar); format: cell-based; settings: Mycolicibacterium smegmatis, ATCC607, 48 h; nutrient agar, pH 7.0, 2 days, 37° C.
Salmonella typhimurium = assay: Minimal inhibitory concentration (agar); format: cell-based; settings: Salmonella enterica, 48 h, nutrient agar, pH 7.0, 2 days, 37° C.
[3] = test system: Mycoplasma gallisepticum KP-13; assay: Antimycoplasma activity, inhibition zone; format: cell-based; settings: Eiken PPLO agar, pH 7.8, 8 days, 37° C.
Experimental: E Eiken PPLO agar (pH 7.8, 8 days, 37° C.)
(§5) Nanaomycin A and derivatives thereof according to the present invention are assayed in a similar manner to that designated as the paper disc method by Itoh, et al [J. of Antibiotics, 24, 855-859 (1971)], for example, as follows: […]

Microsporum gypseum 704 = assay: Minimal inhibitory concentration (agar); format: cell-based; settings: Nannizzia gypsea, 704, 96 h; potato agar, pH 6.4, 4 days, 27° C.
[4] = test system: Staphylococcus aureus FDA 209P (JC-1); assay: Minimal inhibitory concentration (agar); format: cell-based; settings: FDA209P, 48 h, nutrient agar, pH 7.0, 2 days, 37° C.
Experimental: (§6) Medium N nutrient agar (pH 7.0, 2 days, 37° C.)
as §4
(§7) N nutrient agar (pH 7.0, 2 days, 37° C.)

Sarcina lutea PCI 1001 = assay: Minimal inhibitory concentration (agar); format: cell-based; settings: Micrococcus luteus, PCI1001, 48 h, pH 7, nutrient agar, pH 7.0, 2 days, 37° C.; read-out: MIC
Experimental: as §6, §4, §7

[5] = test system: Bacillus subtilis PCI 219; assay: Minimal inhibitory concentration (agar); format: cell-based; settings: Bacillus subtilis, PCI219, 48 h, pH 7, nutrient agar, pH 7.0, 2 days, 37° C.; read-out: MIC
Experimental: as §6, §4, §7

[6] = test system: Escherichia coli NIHJ (JC-2); assay: Minimal inhibitory concentration (agar); format: cell-based; settings: 48 h, pH 7, nutrient agar, pH 7.0, 2 days, 37° C.
Experimental: as §6, §4, §7

[7] = test system: Acholeplasma laidlawii (A); assay: Antimycoplasma activity, inhibition zone; format: cell-based; settings: Hokken PPLO agar, pH 7.8, 8 days, 37° C.
Experimental: H Hokken PPLO agar (pH 7.8, 8 days, 37° C.)
as §5

Trichophyton pedis 804 = assay: Minimal inhibitory concentration (agar); format: cell-based; settings: Trichophyton pedis, 804, 96 h, pH 6.4
Solubility = format: physicochemical
[8] = test system: Aspergillus niger ATCC 6275; assay: Minimal inhibitory concentration (agar); format: cell-based; settings: ATCC6275, 96 h, potato agar, pH 6.4, 4 days, 27° C., read-out: MIC
[9] = test system: mycoplasma, Gram-positive bacteria and tricophyton; assay: Antimicrobial activity (in words); format: cell-based
[10] = test system: parasite of the genus Tricophyton; assay: Therapeutic effect on infectious diseases in guinea pigs and cattle; format: in vivo
Experimental: When dermatomycosis of cattle caused by mass infection of Trichophyton verrucosum is treated with nanaomycin A, nanaomycin A is dissolved or suspended in a suitable carrier, for example, olive oil, and is coated on the affected part directly with or without removal of the scales. […] The results obtained by once-coating of nanaomycin A and by twice-coating (the second coating is carried out a week after the first coating) are shown in Tables 2 and 3, respectively.

[11] = test system: Aspergillus fumigatus IAM 2162; assay: Minimal inhibitory concentration (agar); format: cell-based; settings: IAM2162, 96 h, potato agar, pH 6.4, 4 days, 27° C.
Experimental: | P potato agar (pH 6.4, 4 days, 27° C.)

[12] = test system: Staphylococcus aureus FDA 209P; assay: Minimal inhibitory concentration (agar); format: cell-based; settings: FDA209P, 48 h, nutrient agar, pH 7.0, 2 days, 37° C.
Trichophyton roseum = assay: Minimal inhibitory concentration (agar); format: cell-based; settings: Trichophyton, 96 h, pH 6.4, potato agar, pH 6.4, 4 days, 27° C.; read-out: MIC
Piricularia oryzae = assay: microbe, parasite or virus in culture; format: cell-based; settings: 96 h, pH 6.4, potato agar, pH 6.4, 4 days, 27° C.
[13] = test system: Trichophyton mentagrophytes; assay: Minimal inhibitory concentration (agar); format: cell-based; settings: 96 h, pH 6.4, potato agar, pH 6.4, 4 days, 27° C.
[14] = test system: Staphylococcus aureus KB 61 (R-TC, EM); assay: Minimal inhibitory concentration (agar); format: cell-based; settings: 48 h, pH 7
Experimental: as §7

[15] = test system: Pseudomonas aeruginosa P-3; assay: Minimal inhibitory concentration (agar); format: cell-based; settings: P3, 48 h, nutrient agar, pH 7.0, 2 days, 37° C.
Experimental: as §7

[16] = test system: Corynebacterium paurometabolum; assay: Minimal inhibitory concentration (agar); format: cell-based; settings: Tsukamurella paurometabola, 48 h; nutrient agar, pH 7.0, 2 days, 37° C.
Experimental: as §7

Bacillus cereus T = assay: Minimal inhibitory concentration (agar); format: cell-based; settings: 48 h, nutrient agar, pH 7.0, 2 days, 37° C.
Experimental: as §7

[17] = test system: Staphylococcus aureus FS 1227 (PC-R); assay: Minimal inhibitory concentration (agar); format: cell-based; settings: 48 h, nutrient agar, pH 7.0, 2 days, 37° C., penicillin resistant strain
Experimental: as §7

[18] = test system: Staphylococcus aureus KB 64 (R-TC, EM); assay: Minimal inhibitory concentration (agar); format: cell-based; settings: 48 h, pH 7
Experimental: as §7

[19] = test system: Aerobacter aerogenes IAM 1183; assay: Minimal inhibitory concentration (agar); format: cell-based; settings: Klebsiella aerogenes, IAM1183, 48 h; nutrient agar, pH 7.0, 2 days, 37° C.
Experimental: as §7

Proteus mirabilis = assay: Minimal inhibitory concentration (agar); format: cell-based; settings: 48 h, nutrient agar, pH 7.0, 2 days, 37° C.
Experimental: as §7

Shigella sonnei E 33 = assay: Minimal inhibitory concentration (agar); format: cell-based; settings: E33, 48 h, nutrient agar, pH 7.0, 2 days, 37° C.
Experimental: as §7

[20] = test system: Proteus vulgaris IFO 3167; assay: Minimal inhibitory concentration (agar); format: cell-based; settings: IFO3167, 48 h, nutrient agar, pH 7.0, 2 days, 37° C.
Experimental: as §7

Trichophyton purpureum = assay: Minimal inhibitory concentration (agar); format: cell-based; settings: 96 h, pH 6.4

ethylkalafunginate [reference compound] gave an MIC (Aspergillus niger) of over 100 µg/mL, an MIC (Trichophyton ferrugineum) of over 100 µg/mL and an MIC [1] of over 100 µg/mL. It also gave an MIC (Candida albicans; potato agar) of over 100 µg/mL, an MIC (Trichophyton rubrum; potato agar) of over 100 µg/mL and an MIC (Trichophyton schoenleini; potato agar) of over 100 µg/mL. It also gave an MIC (Trichophyton violaceum) of over 100 µg/mL, an MIC (Trichophyton asteroides) of over 100 µg/mL and an MIC (Saccharomyces sake) of over 100 µg/mL. For the same compound, the “Minimal Inhibitory Con.” value (Microsporum gypseum) was over 100 µg/mL and the “Minimal Inhibitory Con.” value (Aspergillus fumigatus) was over 100 µg/mL.

For `COC(=O)CC1CC2=C(C(=O)c3c(O)cccc3C2=O)C(C)O1` (stereo not shown) [Nanaomycin A methyl ester, nanaomycin A methyl ester], the MIC [2] was 12.5 µg/mL (≈ 39.5 µM), the MIC (Salmonella typhimurium) was over 100 µg/mL and the “Inhibition Zone” value [3] was 28.5 mm. It also gave an MIC (Trichophyton ferrugineum; Microsporum ferrugineum, 96 h, read-out: MIC) of 12.5 µg/mL (≈ 39.5 µM), an MIC (Microsporum gypseum 704) of 1.6 µg/mL (≈ 5.06 µM) and an MIC ([1]; Trichophyton interdigitale, 96 h, read-out: MIC) of 12.5 µg/mL (≈ 39.5 µM). It also gave an MIC (Candida albicans; Candida albicans, 96 h, pH 6.4, potato agar, read-out: MIC) of over 100 µg/mL, an MIC (Trichophyton rubrum; Trichophyton rubrum, 96 h, pH 6.4, potato agar, read-out: MIC) of under 0.2 µg/mL and an MIC (Trichophyton schoenleini; Trichophyton, 96 h, pH 6.4, potato agar, read-out: MIC) of under 0.2 µg/mL. For the same compound, the MIC (Trichophyton violaceum; Trichophyton violaceum, 96 h, read-out: MIC) was 12.5 µg/mL (≈ 39.5 µM), the MIC [4] was 25 µg/mL (≈ 79 µM) and the MIC (Sarcina lutea PCI 1001) was 25 µg/mL (≈ 79 µM). For the same compound, the MIC [5] was 25 µg/mL (≈ 79 µM), the MIC [6] was over 100 µg/mL and the “Inhibition Zone” value [7] was “none”. For the same compound, the MIC (Trichophyton pedis 804) was 12.5 µg/mL (≈ 39.5 µM), the Solubility in ether (Solubility; ether) was “Soluble” and the “Solubility in methanol, ethanol, ethylacetate, chloroform and acetone” value (Solubility; methanol, ethanol, ethylacetate, chloroform, acetone) was “Soluble”. For the same compound, the “Solubility in n-hexane and petroleum ether” value (Solubility; n-hexane, petroleum ether) was “Insoluble”, the Solubility in water (Solubility; water) was “Insoluble” and the MIC [8] was over 100 µg/mL. The antimicrobial activity [9] was “generally lower than those of other derivatives of nanaomycin A”, the MIC (Trichophyton asteroides; Trichophyton, 96 h, read-out: MIC) was 12.5 µg/mL (≈ 39.5 µM) and the “therapeutic effect on Trichophyton infectious diseases” value [10] was “inferior to those of nanaomycin A and acetylnanaomycin A”. The MIC [11] was 100 µg/mL (≈ 316 µM), the MIC [12] was 12.5 µg/mL (≈ 39.5 µM) and the MIC (Saccharomyces sake; Saccharomyces, 96 h, read-out: MIC) was 50 µg/mL (≈ 158 µM). It also gave an MIC (Trichophyton roseum) of 0.8 µg/mL (≈ 2.53 µM), an MIC (Piricularia oryzae) of 12.5 µg/mL (≈ 39.5 µM) and an MIC [13] of 6.3 µg/mL (≈ 19.9 µM). The MIC [14] was 12.5 µg/mL (≈ 39.5 µM), the MIC [15] was over 100 µg/mL and the MIC [16] was 25 µg/mL (≈ 79 µM). The MIC (Bacillus cereus T) was 25 µg/mL (≈ 79 µM), the MIC [17] was 25 µg/mL (≈ 79 µM) and the MIC [18] was 12.5 µg/mL (≈ 39.5 µM). The MIC [19] was over 100 µg/mL, the MIC (Proteus mirabilis) was over 100 µg/mL and the MIC (Shigella sonnei E 33) was over 100 µg/mL. The MIC [20] was over 100 µg/mL and the MIC (Trichophyton purpureum) was 12.5 µg/mL (≈ 39.5 µM).
